Experimental data reported in patent publication US8993574B2, “Pyrrole antifungal agents” (F2G Ltd, priority 2008, dated 2015).
Values after ≈ are worked out from the molar mass of the structure shown.

Experiments:
Type in all cases: cell-based
[1] = tested on: Aspergillus terreus AT4; assay: MIC, YAG medium; conditions: Aspergillus terreus, 24 h at 35° C, MIC banded into grades, read-out: MIC grade, A. terreus
Experimental: (§1) Between 1 and 5 mgs of compound were accurately weighed out into a sterile Eppendorf tube. The compound was dissolved in DMSO to give a solution containing 5 mg/mL. Tubes were stored at −20° C. until required.
(§2) On the day of testing thawed solutions were vortex mixed to ensure homogeneity. 30 μL of solution was removed and added to 570 μL of sterile water in a separate sterile Eppendorf. The thoroughly mixed solution was used to prepare a series of doubling dilutions in water, in a deep well plate. Thirteen replicate plates were prepared using a Minitrak by aspirating 20 μL from each well into eleven clear polystyrene 96 well plates.
(§3) Spores of Aspergillus spp. (Aspergillus fumigatus [two strains], Aspergillus terreus [two strains], Aspergillus niger and Aspergillus flavus) were harvested from cultures grown on Sabarauds agar for 5 days, and resuspended in PBS/Tween 80 to approx 1×10^7 cfu/mL. Each organism suspension was diluted in YAG medium (1% glucose, 1% ammonium chloride and 0.5% yeast extract) to 0.5−2×10^4 cfu/mL. 80 μL of an organism suspension was added to each well of the plate containing drug dilutions.
(§4) This produced MIC plates with a drug range 50-0.05 mg/L and organism inocula of 1−2×10^4 cfu/mL for Aspergillus spp. All plates were incubated for 24 h at 35° C. Growth was assessed by monitoring the optical density at 485 nm for each well. The MIC of a compound is the lowest drug concentration that inhibits growth of an organism by >70% compared with a drug free control. MICs are recorded as mg/L. In cases where the MIC of an organism is […] mg/L the MIC is repeated using a concentration range of 0.5-0.0005 mg/L.
(§5) The following organisms were tested: Aspergillus flavus, Aspergillus fumigatus AF293 and AF210, Aspergillus niger, Aspergillus terreus AT4 and AT49, Candida albicans, Candida glabrata, Candida krusei, Candida parapsilosis and Candida tropicalis.

[2] = tested on: Aspergillus terreus AT49; assay: MIC, YAG medium; conditions: Aspergillus terreus, 24 h at 35° C, MIC banded into grades, read-out: MIC grade, A. terreus 49
Experimental: as §1, §2, §3, §4, §5

[3] = tested on: Aspergillus niger; assay: MIC, YAG medium; conditions: Aspergillus niger, 24 h at 35° C, MIC banded into grades, read-out: MIC grade, A. niger
Experimental: as §1, §2, §3, §4, §5

[4] = tested on: Aspergillus fumigatus AF210; assay: MIC, YAG medium; conditions: Aspergillus fumigatus, 24 h at 35° C, MIC banded into grades, read-out: MIC grade, A. fumigatus 210
Experimental: as §1, §2, §3, §4, §5

[5] = tested on: Aspergillus fumigatus AF293; assay: MIC, YAG medium; conditions: Aspergillus fumigatus, 24 h at 35° C, MIC banded into grades, read-out: MIC grade, A. fumigatus
Experimental: as §1, §2, §3, §4, §5

[6] = tested on: Aspergillus flavus; assay: MIC, YAG medium; conditions: Aspergillus flavus, 24 h, 24 h at 35° C, MIC banded into grades, read-out: MIC grade, A. flavus
Experimental: as §1, §2, §3, §4, §5

[7] = tested on: Aspergillus terreus AT4; assay: MIC, RPMI medium; conditions: Aspergillus terreus, AT4, MIC banded into grades, read-out: MIC grade, A. terreus
Experimental: as §1, §2
(§6) Assays were also performed in RPMI medium for both Aspergillus spp. (strains described above) and Candida spp. (Candida albicans, Candida glabrata, Candida krusei, Candida parapsilosis and Candida tropicalis). To perform MIC tests in this medium, dilutions of compounds are prepared in microtitre plates as described above. Fungal strains to be tested are grown and harvested in an identical manner to that described above, and each organism suspension was diluted in RPMI medium, containing 2% glucose and 0.135 M MOPS buffer (pH 7.0) to 0.5-2×10^4 cfu/mL, rather than in YAG medium. 80 μL of an organism suspension was added to each well of the plate containing drug dilutions.
(§7) This produced MIC plates with a drug range 50-0.05 mg/L and organism inocula of 1−2×10^4 cfu/mL. All plates were incubated for 24-48 h at 35° C. Growth was assessed by monitoring the optical density at 485 nm for each well. The MIC of a compound is the lowest drug concentration that inhibits growth of an organism by >80% compared with a drug free control.
as §5

[8] = tested on: Aspergillus terreus AT49; assay: MIC, RPMI medium; conditions: Aspergillus terreus, AT49, MIC banded into grades, read-out: MIC grade, A. terreus 49
Experimental: as §1, §2, §6, §7, §5

[9] = tested on: Aspergillus niger; assay: MIC, RPMI medium; conditions: Aspergillus niger, MIC banded into grades, read-out: MIC grade, A. niger
Experimental: as §1, §2, §6, §7, §5

[10] = tested on: Aspergillus fumigatus AF210; assay: MIC, RPMI medium; conditions: Aspergillus fumigatus, AF210, MIC banded into grades, read-out: MIC grade, A. fumigatus 210
Experimental: as §1, §2, §6, §7, §5

[11] = tested on: Aspergillus fumigatus AF293; assay: MIC, RPMI medium; conditions: Aspergillus fumigatus, AF293, MIC banded into grades, read-out: MIC grade, A. fumigatus
Experimental: as §1, §2, §6, §7, §5

[12] = tested on: Aspergillus flavus; assay: MIC, RPMI medium; conditions: Aspergillus flavus, MIC banded into grades, read-out: MIC grade, A. flavus
Experimental: as §1, §2, §6, §7, §5

## Cc1cc(C)nc(N2CCN(c3ccc(NC(=O)C(=O)c4c(-c5ccccc5)ccn4CCO)cc3)CC2)c1 [Example 66, N-{4-[4-(4,6-Dimethyl-pyridin-2-yl)-piperazin-1-yl]-phenyl}-2-[1-(2-hydroxy-ethyl)-3-phenyl-1H-pyrrol-2-yl]-2-oxo-acetamide]
[1]
  MIC: 1 to 10 µg/mL (≈ 1.91 to 19.1 µM)
[2]
  MIC: < 1 µg/mL
[3]
  MIC: > 10 µg/mL
[4]
  MIC: 1 to 10 µg/mL (≈ 1.91 to 19.1 µM)
[5]
  MIC: < 1 µg/mL
[6]
  MIC: 1 to 10 µg/mL (≈ 1.91 to 19.1 µM)
[7]
  MIC: 1 to 10 µg/mL (≈ 1.91 to 19.1 µM)
[8]
  MIC: 1 to 10 µg/mL (≈ 1.91 to 19.1 µM)
[9]
  MIC: > 10 µg/mL
[10]
  MIC: 1 to 10 µg/mL (≈ 1.91 to 19.1 µM)
[11]
  MIC: 1 to 10 µg/mL (≈ 1.91 to 19.1 µM)
[12]
  MIC: > 10 µg/mL

## Cc1cc(-c2ccccc2)c(C(=O)C(=O)Nc2ccncc2)n1C [Example 33, 2-(1,5-Dimethyl-3-phenyl-1H-pyrrol-2-yl)-2-oxo-N-pyridin-4-yl-acetamide]
[1]
  MIC: > 10 µg/mL
[2]
  MIC: 1 to 10 µg/mL (≈ 3.13 to 31.3 µM)
[3]
  MIC: > 10 µg/mL
[4]
  MIC: > 10 µg/mL
[5]
  MIC: > 10 µg/mL
[6]
  MIC: > 10 µg/mL
[7]
  MIC: > 10 µg/mL
[8]
  MIC: > 10 µg/mL
[9]
  MIC: > 10 µg/mL
[10]
  MIC: > 10 µg/mL
[11]
  MIC: > 10 µg/mL
[12]
  MIC: > 10 µg/mL

## COCCn1c(C)cc(-c2ccccc2)c1C(=O)C(=O)Nc1ccc(N2CCOCC2)c(F)c1 [Example 126, N-(3-Fluoro-4-morpholin-4-yl-phenyl)-2-[1-(2-methoxy-ethyl)-5-methyl-3-phenyl-1H-pyrrol-2-yl]-2-oxo-acetamide]
[1]
  MIC: < 1 µg/mL
[2]
  MIC: < 1 µg/mL
[3]
  MIC: 1 to 10 µg/mL (≈ 2.15 to 21.5 µM)
[4]
  MIC: < 1 µg/mL
[5]
  MIC: < 1 µg/mL
[6]
  MIC: 1 to 10 µg/mL (≈ 2.15 to 21.5 µM)
[7]
  MIC: 1 to 10 µg/mL (≈ 2.15 to 21.5 µM)
[8]
  MIC: 1 to 10 µg/mL (≈ 2.15 to 21.5 µM)
[9]
  MIC: > 10 µg/mL
[10]
  MIC: 1 to 10 µg/mL (≈ 2.15 to 21.5 µM)
[11]
  MIC: 1 to 10 µg/mL (≈ 2.15 to 21.5 µM)
[12]
  MIC: > 10 µg/mL

## CCOCCn1c(C)cc(-c2ccccc2)c1C(=O)C(=O)Nc1ccc(N2CCN(c3cc(C)cc(C)n3)CC2)cc1 [Example 27, N-{4-[4-(4,6-Dimethyl-pyridin-2-yl)-piperazin-1-yl]-phenyl}-2-[1-(2-ethoxy-ethyl)-5-methyl-3-phenyl-1H-pyrrol-2-yl]-2-oxo-acetamide]
[1]
  MIC: 1 to 10 µg/mL (≈ 1.77 to 17.7 µM)
[2]
  MIC: 1 to 10 µg/mL (≈ 1.77 to 17.7 µM)
[3]
  MIC: 1 to 10 µg/mL (≈ 1.77 to 17.7 µM)
[4]
  MIC: < 1 µg/mL
[5]
  MIC: < 1 µg/mL
[6]
  MIC: > 10 µg/mL
[7]
  MIC: > 10 µg/mL
[8]
  MIC: > 10 µg/mL
[9]
  MIC: 1 to 10 µg/mL (≈ 1.77 to 17.7 µM)
[10]
  MIC: 1 to 10 µg/mL (≈ 1.77 to 17.7 µM)
[11]
  MIC: 1 to 10 µg/mL (≈ 1.77 to 17.7 µM)
[12]
  MIC: > 10 µg/mL

## Cc1cc(C)nc(N2CCN(c3ccc(NC(=O)C(=O)c4c(-c5ccccc5)cc(C)n4C(C)C)cc3)CC2)c1 [Example 8, N-{4-[4-(4,6-Dimethyl-pyridin-2-yl)-piperazin-1-yl]-phenyl}-2-(1-isopropyl-5-methyl-3-phenyl-1H-pyrrol-2-yl)-2-oxo-acetamide]
[1]
  MIC: 1 to 10 µg/mL (≈ 1.87 to 18.7 µM)
[2]
  MIC: 1 to 10 µg/mL (≈ 1.87 to 18.7 µM)
[3]
  MIC: < 1 µg/mL
[4]
  MIC: < 1 µg/mL
[5]
  MIC: < 1 µg/mL
[6]
  MIC: 1 to 10 µg/mL (≈ 1.87 to 18.7 µM)
[7]
  MIC: 1 to 10 µg/mL (≈ 1.87 to 18.7 µM)
[8]
  MIC: 1 to 10 µg/mL (≈ 1.87 to 18.7 µM)
[9]
  MIC: 1 to 10 µg/mL (≈ 1.87 to 18.7 µM)
[10]
  MIC: 1 to 10 µg/mL (≈ 1.87 to 18.7 µM)
[11]
  MIC: 1 to 10 µg/mL (≈ 1.87 to 18.7 µM)
[12]
  MIC: > 10 µg/mL

## Cc1cc(C)nc(N2CCN(c3ccc(NC(=O)C(=O)c4c(-c5ccccc5)cc(C)n4C)cc3Cl)CC2)c1 [Example 11, N-{3-Chloro-4-[4-(4,6-dimethyl-pyridin-2-yl)-piperazin-1-yl]-phenyl}-2-(1,5-dimethyl-3-phenyl-1H-pyrrol-2-yl)-2-oxo-acetamide]
[1]
  MIC: < 1 µg/mL
[2]
  MIC: < 1 µg/mL
[3]
  MIC: < 1 µg/mL
[4]
  MIC: < 1 µg/mL
[5]
  MIC: < 1 µg/mL
[6]
  MIC: < 1 µg/mL
[7]
  MIC: < 1 µg/mL
[8]
  MIC: < 1 µg/mL
[9]
  MIC: < 1 µg/mL
[10]
  MIC: < 1 µg/mL
[11]
  MIC: < 1 µg/mL
[12]
  MIC: < 1 µg/mL

## Cc1cc(-c2ccccc2)c(C(=O)C(=O)Nc2cccc3ccncc23)n1C [Example 43, 2-(1,5-Dimethyl-3-phenyl-1H-pyrrol-2-yl)-N-isoquinolin-8-yl-2-oxo-acetamide]
[1]
  MIC: 1 to 10 µg/mL (≈ 2.71 to 27.1 µM)
[2]
  MIC: 1 to 10 µg/mL (≈ 2.71 to 27.1 µM)
[3]
  MIC: > 10 µg/mL
[4]
  MIC: 1 to 10 µg/mL (≈ 2.71 to 27.1 µM)
[5]
  MIC: 1 to 10 µg/mL (≈ 2.71 to 27.1 µM)
[6]
  MIC: < 1 µg/mL
[7]
  MIC: 1 to 10 µg/mL (≈ 2.71 to 27.1 µM)
[8]
  MIC: > 10 µg/mL
[9]
  MIC: > 10 µg/mL
[10]
  MIC: > 10 µg/mL
[11]
  MIC: > 10 µg/mL
[12]
  MIC: 1 to 10 µg/mL (≈ 2.71 to 27.1 µM)

## Cc1cc(-c2ccccc2)c(C(=O)C(=O)Nc2ccc(-c3ncco3)cc2F)n1C [Example 100, 2-(1,5-Dimethyl-3-phenyl-1H-pyrrol-2-yl)-N-[2-fluoro-4-oxazol-2-yl-phenyl)-2-oxo-acetamide]
[1]
  MIC: < 1 µg/mL
[2]
  MIC: < 1 µg/mL
[3]
  MIC: < 1 µg/mL
[4]
  MIC: 1 to 10 µg/mL (≈ 2.48 to 24.8 µM)
[5]
  MIC: < 1 µg/mL
[6]
  MIC: < 1 µg/mL
[7]
  MIC: < 1 µg/mL
[8]
  MIC: < 1 µg/mL
[9]
  MIC: < 1 µg/mL
[10]
  MIC: 1 to 10 µg/mL (≈ 2.48 to 24.8 µM)
[11]
  MIC: < 1 µg/mL
[12]
  MIC: < 1 µg/mL

## CCCOCCn1c(C)cc(-c2ccccc2)c1C(=O)C(=O)Nc1ccc(N2CCN(c3cc(C)cc(C)n3)CC2)cc1 [Example 140, N-{4-[4-(4,6-Dimethyl-pyridin-2-yl)-piperazin-1-yl]-phenyl}-2-[5-methyl-3-phenyl-1-(2-propoxy-ethyl)-1H-pyrrol-2-yl]-2-oxo-acetamide]
[1]
  MIC: 1 to 10 µg/mL (≈ 1.72 to 17.2 µM)
[2]
  MIC: 1 to 10 µg/mL (≈ 1.72 to 17.2 µM)
[3]
  MIC: 1 to 10 µg/mL (≈ 1.72 to 17.2 µM)
[4]
  MIC: < 1 µg/mL
[5]
  MIC: 1 to 10 µg/mL (≈ 1.72 to 17.2 µM)
[6]
  MIC: 1 to 10 µg/mL (≈ 1.72 to 17.2 µM)
[7]
  MIC: > 10 µg/mL
[8]
  MIC: > 10 µg/mL
[9]
  MIC: > 10 µg/mL
[10]
  MIC: > 10 µg/mL
[11]
  MIC: > 10 µg/mL
[12]
  MIC: > 10 µg/mL
